Values quoted from earlier work, collected in patent US20040197891A1, “Removal of plasmin(ogen) from protein solutions” (priority 2001, published 2004).
Read-outs that look alike come from different tables or passages of the source.

What was measured:
[1] = tested on: plasmin(ogen)
[2] = tested on: fibrinolytic activity of plasma
[3] = plasma that has been heparinized oral blood

For N=C(N)c1ccc(N)cc1 [PAMBA, p-amino benzamidine], the “antifibrinolytic activity compared with EACA” value [1] is listed as “about three”.

For NCCCC[C@H](N)C(=O)O [lysine], the antifibrinolytic potency [1] is listed as “very low”.

In the case of NC[C@H]1CC[C@H](C(=O)O)CC1 [tranexamic acid], the “inhibition (anti-fibrinolytic activity)” value [2, 3] is given as 39% and the “inhibition (anti-fibrinolytic activity)” value ([2]; urokinase-stimulated plasma) is given as 91%.

In the case of NCCCCCC(=O)O [ε-amino-caproic acid, ε-amino caproic acid], the “inhibition (anti-fibrinolytic activity)” value [2, 3] is listed as 65% and the “inhibition (anti-fibrinolytic activity)” value ([2]; urokinase-stimulated plasma) is listed as 98%.
